From patent publication US12448383B2, “Compounds and methods for treatment of viral infections” (priority 2022, dated 2025)
Read-outs that look alike come from different tables or passages of the source.

Tests used:
[1] = system: Respiratory syncytial virus recombinant with luciferase (RSV-Luc5) in HEp-2 cells; test: microbe, parasite or virus in culture; format: cell-based; details: human respiratory syncytial virus
[2] = system: SARS Coronavirus 2 recombinant with NanoLuc (SARS-CoV2-NLuc) in A549-hACE2 cells; test: organism not typed; format: cell-based
[3] = CC50 MT4 cytotoxicity (Cell-Titer Glo); format: cell-based; details: human
Outline: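 Uninfected MT-4 and HEp-2 cells cultured 4-5 days at 37° C with 3-fold serially diluted compound (15 nM to 100,000 nM). Viability read by Cell-Titer Glo luminescence; untreated and 2 μM puromycin wells set 100% and 0%. CC50 from non-linear regression as concentration reducing viability by 50%.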

[4] = Stability in pH2 buffered solution; format: physicochemical; details: pH2 phosphate buffer, 40° C.; for pH 2 Stability 24 h % AN: Table N2
Outline: (§1)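 Compounds diluted from 1 mg/mL acetonitrile stock to 50 μg/mL in 50 mM phosphate buffer with 150 mM NaCl at pH2 or pH7, held at 40° C. for 24 hrs. UPLC sampling at 0, 3, 6, 9, 12 hrs, plus 24 hrs from oven-stored duplicate; reported as % area normalized of compound peak.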

[5] = Stability in pH7 buffered solution; format: physicochemical; details: pH7 phosphate buffer, 40° C., Table N2
Outline: as §1

[6] = GI S9 stability; format: in vitro ADME; details: human, s9, pH 7.4
[7] = physchem
[8] = HEp-2, 72 h, read-out: RSV Hep2 EC50

CC12CCC(C1)C(C)(C)C2OC(=O)OC[C@H]1O[C@@](C#N)(c2ccc3c(N)ncnn23)[C@H](O)[C@@H]1O (mixture of isomers) [Compound 48, ((2R,3S,4R,5R)-5-(4-aminopyrrolo[2,1-f][1,2,4]triazin-7-yl)-5-cyano-3,4-dihydroxytetrahydrofuran-2-yl)methyl (1,3,3-trimethylbicyclo[2.2.1]heptan-2-yl) carbonate]
EC50 [1, 8]: 2.35 µM | EC50 ([2]; 48 h, read-out: SARS-CoV2 EC50): 14.2 µM | CC50 [3]: 25.5 µM | pH 2 Stability 24 h % AN [4]: 100 % AN | pH 7 Stability 24 h % AN [5]: 99 % AN

CC(C)OC(=O)OC[C@H]1O[C@@](C#N)(c2ccc3c(N)ncnn23)[C@H](O)[C@@H]1O [Compound 4, [(2R,3S,4R,5R)-5-(4-aminopyrrolo[2,1-f][1,2,4]triazin-7-yl)-5-cyano-3,4-dihydroay-tetrahydrofuran-2-yl]methyl isopropyl carbonate]
EC50 [1, 8]: 0.606 µM | EC50 ([2]; 48 h, read-out: SARS-CoV2 EC50): 2.67 µM | CC50 [3]: > 50 µM | half-life at 2 µM [6]: 4.21 h | Stability at pH2, 0 hr [4]: 98.5 % AN | Stability at pH2, 3 hr [4]: 98.3 % AN | Stability at pH2, 6 hr [4]: 98.5 % AN | Stability at pH2, 9 hr [4]: 98.4 % AN | Stability at pH2, 12 hr [4]: 98.5 % AN | pH 2 Stability 24 h % AN [4]: 98 % AN | Stability at pH2, 24 hr [4]: 98.3 % AN | pH 7 Stability 24 h % AN [5]: 97 % AN

CCOC(=O)OC[C@H]1O[C@@](C#N)(c2ccc3c(N)ncnn23)[C@H](O)[C@@H]1O [Compound 6, ((2R,3S,4R,5R)-5-(4-aminopyrrolo[2,1-f][1,2,4]triazin-7-yl)-5-cyano-3,4-dihydroxytetrahydrofuran-2-yl)methyl ethyl carbonate]
EC50 [1, 8]: 1.11 µM | EC50 ([2]; 48 h, read-out: SARS-CoV2 EC50): 4.42 µM | CC50 [3]: > 50 µM | half-life at 2 µM [6]: 11.9 h | pH 2 Stability 24 h % AN [4]: 100 % AN | pH 7 Stability 24 h % AN [5]: 100 % AN

CC(C)(C)OC(=O)OC[C@H]1O[C@@](C#N)(c2ccc3c(N)ncnn23)[C@H](O)[C@@H]1O [Compound 46, ((2R,3S,4R,5R)-5-(4-aminopyrrolo[2,1-f][1,2,4]triazin-7-yl)-5-cyano-3,4-dihydroxytetrahydrofuran-2-yl)methyl tert-butyl carbonate]
EC50 [1, 8]: 2.32 µM | EC50 ([2]; 48 h, read-out: SARS-CoV2 EC50): 4.3 µM | CC50 [3]: > 50 µM | half-life at 2 µM [6]: 7.32 h | pH 2 Stability 24 h % AN [4]: 4 % AN | pH 7 Stability 24 h % AN [5]: 8 % AN

CC1(OC(=O)OC[C@H]2O[C@@](C#N)(c3ccc4c(N)ncnn34)[C@H](O)[C@@H]2O)CCCCC1 [Compound 47, ((2R,3S,4R,5R)-5-(4-aminopyrrolo[2,1-f][1,2,4]triazin-7-yl)-5-cyano-3,4-dihydroxytetrahydrofuran-2-yl)methyl (1-methylcyclohexyl) carbonate]
EC50 [1, 8]: 2.33 µM | EC50 ([2]; 48 h, read-out: SARS-CoV2 EC50): 3.36 µM | CC50 [3]: > 50 µM | pH 2 Stability 24 h % AN [4]: 1 % AN | pH 7 Stability 24 h % AN [5]: 3 % AN

CC(C)(OC(=O)OC[C@H]1O[C@@](C#N)(c2ccc3c(N)ncnn23)[C@H](O)[C@@H]1O)c1ccncc1 [Compound 49, ((2R,3S,4R,5R)-5-(4-aminopyrrolo[2,1-f][1,2,4]triazin-7-yl)-5-cyano-3,4-dihydroxytetrahydrofuran-2-yl)methyl (2-(pyridin-4-yl)propan-2-yl) carbonate]
EC50 [1, 8]: > 50 µM | EC50 ([2]; 48 h, read-out: SARS-CoV2 EC50): 14.3 µM | CC50 [3]: > 50 µM | pH 2 Stability 24 h % AN [4]: 97 % AN | pH 7 Stability 24 h % AN [5]: 94 % AN

CC1(C)[C@@H]2CC[C@@]1(C)[C@@H](OC(=O)OC[C@H]1O[C@@](C#N)(c3ccc4c(N)ncnn34)[C@H](O)[C@@H]1O)C2 [Compound 51, ((2R,3S,4R,5R)-5-(4-aminopyrrolo[2,1-f][1,2,4]triazin-7-yl)-5-cyano-3,4-dihydroxytetrahydrofuran-2-yl)methyl ((1R,2S,4R)-1,7,7-trimethylbicyclo[2.2.1]heptan-2-yl) carbonate]
EC50 [1, 8]: 2.14 µM | EC50 ([2]; 48 h, read-out: SARS-CoV2 EC50): 7.83 µM | CC50 [3]: 38.3 µM | pH 2 Stability 24 h % AN [4]: 98 % AN | pH 7 Stability 24 h % AN [5]: 97 % AN

CC(C)C(=O)O[C@H]1[C@@H](OC(=O)C(C)C)[C@](C#N)(c2ccc3c(N)ncnn23)O[C@@H]1COC(=O)OC(C)(C)C [Compound 58, (2R,3R,4R,5R)-2-(4-aminopyrrolo[2,1-f][1,2,4]triazin-7-yl)-5-(((tert-butoxycarbonyl)oxy)methyl)-2-cyanotetrahydrofuran-3,4-diyl bis(2-methylpropanoate)]
EC50 [1, 8]: 1.36 µM | EC50 ([2]; 48 h, read-out: SARS-CoV2 EC50): 2.24 µM | CC50 [3]: 27.1 µM | pH 2 Stability 24 h % AN [4]: 2 % AN | pH 7 Stability 24 h % AN [5]: 7 % AN

CC(C)OC(=O)OC[C@H]1O[C@@](C#N)(c2ccc3c(N)ncnn23)[C@H](OC(=O)C(C)C)[C@@H]1OC(=O)C(C)C [Compound 59, (2R,3R,4R,5R)-2-(4-aminopyrrolo[2,1-f][1,2,4]triazin-7-yl)-2-cyano-5-(((isopropoxycarbonyl)oxy)methyl)tetrahydrofuran-3,4-diyl bis(2-methylpropanoate)]
EC50 [1, 8]: 0.786 µM | EC50 ([2]; 48 h, read-out: SARS-CoV2 EC50): 4.16 µM | CC50 [3]: > 50 µM | half-life at 2 µM [6]: 0.0239 h | Stability at pH2, 0 hr [4]: 100.0 % AN | Stability at pH2, 3 hr [4]: 100.0 % AN | Stability at pH2, 6 hr [4]: 100.0 % AN | Stability at pH2, 9 hr [4]: 100.0 % AN | Stability at pH2, 12 hr [4]: 98.9 % AN | pH 2 Stability 24 h % AN [4]: 98 % AN | Stability at pH2, 24 hr [4]: 97.9 % AN | pH 7 Stability 24 h % AN [5]: 93 % AN

CC(=O)O[C@H]1[C@@H](OC(C)=O)[C@](C#N)(c2ccc3c(N)ncnn23)O[C@@H]1COC(=O)OC(C)C [Compound 65, (2R,3R,4R,5R)-2-(4-aminopyrrolo[2,1-f][1,2,4]triazin-7-yl)-2-cyano-5-(((isopropoxycarbonyl)oxy)methyl)tetrahydrofuran-3,4-diyl diacetate]
EC50 [1, 8]: 1.08 µM | EC50 ([2]; 48 h, read-out: SARS-CoV2 EC50): 3.64 µM | CC50 [3]: > 50 µM | pH 2 Stability 24 h % AN [4]: 90 % AN | pH 7 Stability 24 h % AN [5]: 80 % AN

COC(=O)OC[C@H]1O[C@@](C#N)(c2ccc3c(N)ncnn23)[C@H](OC(C)=O)[C@@H]1OC(C)=O [Compound 128, (2R,3R,4R,5R)-2-(4-aminopyrrolo[2,1-f][1,2,4]triazin-7-yl)-2-cyano-5-(((methoxycarbonyl)oxy)methyl)tetrahydrofuran-3,4-diyl diacetate]
EC50 ([2]; 48 h, read-out: SARS-CoV2 EC50): 7.23 µM | CC50 [3]: > 50 µM | Stability at pH2, 0 hr [4]: 100.0 % AN | Stability at pH2, 3 hr [4]: 98.3 % AN | Stability at pH2, 6 hr [4]: 96.7 % AN | Stability at pH2, 9 hr [4]: 95.2 % AN | Stability at pH2, 12 hr [4]: 93.8 % AN | pH 2 Stability 24 h % AN [4]: 89 % AN | Stability at pH2, 24 hr [4]: 89.3 % AN | pH 7 Stability 24 h % AN [5]: 78 % AN

CCOC(=O)OC[C@H]1O[C@@](C#N)(c2ccc3c(N)ncnn23)[C@H](OC(C)=O)[C@@H]1OC(C)=O [Compound 129, (2R,3R,4R,5R)-2-(4-aminopyrrolo[2,1-f][1,2,4]triazin-7-yl)-2-cyano-5-(((ethoxycarbonyl)oxy)methyl)tetrahydrofuran-3,4-diyl diacetate]
EC50 ([2]; 48 h, read-out: SARS-CoV2 EC50): 5.83 µM | CC50 [3]: > 50 µM | Stability at pH2, 0 hr [4]: 100.0 % AN | Stability at pH2, 3 hr [4]: 98.4 % AN | Stability at pH2, 6 hr [4]: 96.9 % AN | Stability at pH2, 9 hr [4]: 95.5 % AN | Stability at pH2, 12 hr [4]: 94.0 % AN | pH 2 Stability 24 h % AN [4]: 89 % AN | Stability at pH2, 24 hr [4]: 89.4 % AN | pH 7 Stability 24 h % AN [5]: 78 % AN

CC(C)OC(=O)Nc1ncnn2c([C@]3(C#N)O[C@H](COC(=O)OC(C)C)[C@@H](O)[C@H]3O)ccc12 [Compound 137, isopropyl (7-((2R,3R,4S,5R)-2-cyano-3,4-dihydroxy-5-(((isopropoxycarbonyl)oxy)methyl)tetrahydrofuran-2-yl)pyrrolo[2, i-f][1,2,4]triazin-4-yl)carbamate]
EC50 ([1]; HEp-2, read-out: EC50 RSVFluc-Hep2 384 V2): > 50 µM | EC50 ([2]; A549, read-out: EC50 SARS CoV2 NanoLuc A549 384): > 50 µM | CC50 [3]: > 50 µM | pH 2 Stability 24 h % AN [4]: 80 % AN | pH 7 Stability 24 h % AN [5]: 97 % AN | logD [7]: 2
